Test results reported in patent EP4635969A1, “NOVEL GLUCOCORTICOID, METHOD FOR PREPARING SAME, AND USE THEREOF” (Tianjin Pharmaceutical Biotechnology Co., Ltd., priority 2022, dated 2024).
Like-named read-outs stand apart in the source and are kept apart here.

How the values were obtained:
[1] = biological target: T1, glucocorticoid receptor (GR) (Homo sapiens, UniProt P04150); experiment: Assay for agonist activity on glucocorticoid receptor (luciferase reporter, HEK293 cells transfected with pBIND-GR plasmid); type: cell-based
T1 sequence (P04150 521-777): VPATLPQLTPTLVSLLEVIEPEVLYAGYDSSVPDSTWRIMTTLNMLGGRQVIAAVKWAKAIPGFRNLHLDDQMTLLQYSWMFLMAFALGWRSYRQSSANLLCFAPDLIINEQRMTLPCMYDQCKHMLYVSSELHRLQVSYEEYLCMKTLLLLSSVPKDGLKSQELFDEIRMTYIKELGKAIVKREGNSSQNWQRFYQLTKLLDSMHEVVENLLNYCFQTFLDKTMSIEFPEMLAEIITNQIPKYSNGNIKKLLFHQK
Procedure, shortened: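 HEK293 cells transfected with pBIND-GR, seeded in phenol red-free DMEM with 5% charcoal-stripped serum, then exposed to compounds in a 10-point, 4-fold dilution series from 10 µM, in duplicate. Luciferase luminescence read after incubation; EC50 from nonlinear fit. Vehicle blank: 0.1% DMSO.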

[2] = biological target: T2, mineralocorticoid receptor (MR) (Homo sapiens, UniProt P08235); experiment: Assay for agonist activity on mineralocorticoid receptor (luciferase reporter, HEK293 cells transfected with pBIND-MR plasmid); type: cell-based; settings: for target selectivity: MR/GR and PR/GR, same experimental conditions; for Target selectivity MR/GR: ratio of EC50 values
T2 sequence (P08235 726-984): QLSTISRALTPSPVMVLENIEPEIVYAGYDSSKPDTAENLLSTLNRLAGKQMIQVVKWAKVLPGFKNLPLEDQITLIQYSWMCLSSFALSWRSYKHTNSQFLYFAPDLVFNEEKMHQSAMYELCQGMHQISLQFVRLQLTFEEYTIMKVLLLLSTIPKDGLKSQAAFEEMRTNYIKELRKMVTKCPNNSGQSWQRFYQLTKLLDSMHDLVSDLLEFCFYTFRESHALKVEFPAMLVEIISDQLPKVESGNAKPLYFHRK
Procedure, shortened: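 HEK293 cells transiently transfected with pBIND-MR or pBIND-PR, seeded in phenol red-free DMEM with 5% charcoal-stripped serum. Compounds tested as 12-point 4-fold dilutions from 50 µM in duplicate, 0.1% DMSO blank. Luciferase luminescence read, EC50 by nonlinear fit.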

[3] = Determination of stability in plasma in vitro, human plasma (LC-MS/MS); type: in vitro ADME; settings: same experimental conditions (human and mouse plasma)
Protocol: Pharmacological Example 3: Determination of Stability in Plasma in Vitro
The stock solution was diluted with acetonitrile to obtain a working solution at a concentration of 100 µ M. The solution should be freshly prepared prior to use and maintained at room temperature during application.
990 µ L of human and mouse plasma (N = 2) were separately pipetted and pre-incubated at 37 °C for 5 min. Then, 10 µ L of the test compound working solution was added and vortexed thoroughly (the final concentration of the test compound was 1 µ M). Immediately, 50 µ L of the plasma sample was added to 150 µ L of ice-cold precipitation agent containing the internal standard and vortexed thoroughly as the 0-time sample. The remaining plasma sample was continuously incubated at 37 °C, and 50 µ L of the plasma sample was aspirated and added to 150 µ L of ice-cold precipitation agent containing the internal standard at preset sampling time points, followed by thorough vortexing. The collected samples were stored in a freezer at -60 to -90 °C until analysis.
The concentration of the test compound was determined by LC-MS/MS, and its degradation was monitored. (semi-quantitative determination was conducted by comparing the peak area of the analyte to that of the internal standard).

[4] = tested on: uveitis model rats; experiment: Anti-uveitis pharmacodynamic experiment (LPS model): ocular pathological score; type: in vivo, male SD rats; settings: for ocular abnormalities / ocular pathological score: compared with the model group; for Ocular pathological score: 1 mg/mL, 40 µL/eye, 3 times a day for 2 days
Protocol: Pharmacodynamic Experiment on Anti-Uveitis
Positive control drug: Fluorometholone Eye Drops (specification: 5 mL/5 mg; Santen Pharmaceutical (CHINA) Co., Ltd.; Lot No. : J20180068) was used as the positive control drug and stored at room temperature protected from light until use.
Fifty male SD rats underwent a one-week adaptive feeding period. […] Groups 2 to 5 were used to establish rat uveitis models by single subcutaneous injection of 1 mg/kg LPS (Salmonella; Sigma; Lot No. 0000164114) into the plantar tissue of the hindpaw. Salmonella endotoxin was dissolved in normal saline to prepare an injection solution at a concentration of 2 mg/mL, which was injected subcutaneously at 1 mg/kg into the plantar tissue of one paw of the rats. Group 1 was injected with an equal volume of normal saline.
At the end of the experiment, photos of the rats' eyes were taken using a slit-lamp microscope, and the differences in ocular lesions of rats among groups were compared and analyzed.
Statistical analysis was performed using SPSS software. Measurement data were expressed as mean ± standard deviation. One-way ANOVA was used for intergroup comparisons. For data with homogeneous variance, LSD test was used; for data with heterogeneous variance, Dunnett-t test was used. A value of P < 0.05 was considered statistically significant.

[5] = tested on: IL-17; experiment: Psoriasis experiment (imiquimod model): inflammatory cytokine in serum (ELISA); type: in vivo, mice; settings: for level of IL-17 / inflammatory cytokines in psoriasis model mice: compared with the model group; for IL-17: serum, day 8 of modeling, 0.2 g cream per mouse daily for 7 days
Protocol: Positive control drug: Fluticasone Propionate Cream (specification: 0.05% × 15 g, Zhejiang Xianju Pharmaceutical Co. Ltd., Lot No. 211106), stored at room temperature protected from light until use.
Adult mice were selected, and the skin of 2 cm × 3 cm on the back of mice was locally depilated. The mice in the model group and drug administration group were applied with 62.5 mg of 5% imiquimod cream on their back for modeling, while the mice in the blank control group were applied with medical petroleum jelly on their back daily. The above procedures were performed once a day for 7 consecutive days.
The mice in the drug administration group were applied with the corresponding drugs on their backs daily at a dose of 0.2 g per mouse, while the blank control group and the model group were only applied with 0.2 g of the test sample drug matrix. One hour after drug administration, the drugs were wiped off with sterile cotton swabs, followed by the application of imiquimod. The above procedures were performed once a day for 7 consecutive days.
After the PASI scoring on day 8 of modeling, blood was collected from the orbital sinus of mice and centrifuged at 3000 rpm for 10 min. The supernatant was extracted to measure the level of IL-17. All procedures were performed following the instructions of the ELISA kit.
Statistical analysis was performed using SPSS software, and the results were expressed as mean ± standard deviation. One-way ANOVA was used for intergroup comparisons. For data with homogeneous variance, the LSD test was used; for data with heterogeneous variance, the Dunnett-t test was used. A value of P < 0.05 was considered statistically significant.

[6] = HEK293 cells transfected with pBIND-GR, luciferase signal, read-out: GR agonist EC50
[7] = EC50 of agonist activity, HEK293 reporter cells, read-out: Nuclear receptor enzyme activity (nM) GR
[8] = EC50 of agonist activity, HEK293 reporter cells, top concentration 50 µM, read-out: Nuclear receptor enzyme activity (nM) MR
[9] = GR agonist EC50 (nM), HEK293 cells transfected with pBIND-GR, luciferase signal

SMILES	EC50 [1, 6]	target selectivity [2]	plasma instability [3]	ocular abnormalities / ocular pathological score [4]	level of IL-17 / inflammatory cytokines in psoriasis model mice [5]	EC50 [1, 7]	EC50 [2, 8]	Target selectivity MR/GR [2]	IL-17 [5]	EC50 [1, 9]	Ocular pathological score [4]	EC50 ([1]; Nuclear receptor enzyme activity (nM) GR, EC50 of agonist activity, HEK293 reporter cells)	EC50 [2]
C[C@]12C=CC(=O)C=C1CC[C@H]1[C@@H]3C[C@H]4OC(c5ccc(CSC6COC(=O)C6)cc5Cl)O[C@@]4(C(=O)CO)[C@@]3(C)C[C@H](O)[C@@]12F (stereo partly drawn) [Compound 20, (6aS,6bR,7S,8aS,8bS,11aR,12aS,12bS)-10-(2-Chloro-4-(((5-oxotetrahydrofuran-3-yl)thio)methyl)phenyl)-6b-fluoro-7-hydroxy-8b-(2-hydroxyacetyl)-6a,8a-dimethyl-1,2,6a,6b,7,8,8a,8b,11a,12,12a, 12b-dodecahydro-4H-naphtho[2',1':4,5]indeno[1,2-d][1,3]dioxol-4-one]	0.33 nM	target selectivity comparable to that of compound 23	exhibited the characteristic of plasma instability	significantly improved ocular abnormalities	significantly inhibited inflammatory cytokines in the skin of psoriasis model mice	–	–	–	–	–	–	–	–
C[C@]12C=CC(=O)C=C1CC[C@H]1[C@@H]3C[C@H]4OC(c5ccc(CSC6CCOC6=O)cc5)O[C@@]4(C(=O)CO)[C@@]3(C)C[C@H](O)[C@@]12F (stereo partly drawn) [Compound 17, (6aS,6bR,7S,8aS,8bS,11aR,12aS,12bS)-6b-Fluoro-7-hydroxy-8b-(2-hydroxyacetyl)-6a,8a-dimethyl-10-(4-(((2-oxotetrahydrofuran-3-yl)thio)methyl)phenyl)-1,2,6a,6b,7,8,8a,8b,11a,12,12a,12b-do decahydro-4H-naphtho[2',1':4,5]indeno[1,2-d][1,3]dioxol-4-one]	0.3 nM	–	exhibited the characteristic of plasma instability	significantly improved ocular abnormalities	significantly decreased the level of IL-17	0.3 nM	> 50000 nM	> 1.7×10^5	31.30 ± 14.99 pg/mL	–	–	–	–
C[C@]12C=CC(=O)C=C1CC[C@H]1[C@@H]3C[C@H]4OC(c5ccc(CSC6CCOC6=O)cn5)O[C@@]4(C(=O)CO)[C@@]3(C)C[C@H](O)[C@@]12Cl (stereo partly drawn) [Compound 51, (6aS,6bR,7S,8aS,8bS,11aR,12aS,12bS)-6b-Chloro-7-hydroxy-8b-(2-hydroxyacetyl)-6a,8a-dimethyl-10-(5-(((2-oxotetrahydrofuran-3-yl)thio)methyl)pyridin-2-yl)-1,2,6a,6b,7,8,8a,8b,11a,12,12a,12 b-dodecahydro-4H-naphtho[2',1':4,5]indeno[1,2-d][1,3]dioxol-4-one]	–	target selectivity comparable to that of compound 23	exhibited the characteristic of plasma instability	significantly improved ocular abnormalities	significantly inhibited inflammatory cytokines in the skin of psoriasis model mice	–	–	–	–	0.82 nM	–	–	–
C[C@]12C=CC(=O)C=C1CC[C@H]1[C@@H]3C[C@H]4OC(c5ccc(CSC6CCOC6=O)cc5)O[C@@]4(C(=O)CO)[C@@]3(C)C[C@H](O)[C@@]12Cl (stereo partly drawn) [Compound 23, (6aS,6bR,7S,8aS,8bS,11aR,12aS,12bS)-6b-Chloro-7-hydroxy-8b-(2-hydroxyacetyl)-6a,8a-dimethyl-10-(4-(((2-oxotetrahydrofuran-3-yl)thio)methyl)phenyl)-1,2,6a,6b,7,8,8a,8b,11a,12,12a,12b-do decahydro-4H-naphtho[2',1':4,5]indeno[1,2-d][1,3]dioxol-4-one]	0.21 nM	–	exhibited the characteristic of plasma instability	significantly improved the ocular abnormalities and reduced the ocular pathological score	significantly decreased the level of IL-17	0.21 nM	> 50000 nM	> 2.4×10^5	19.56 ± 8.13 pg/mL	–	7.0 ± 0.5	–	–
C[C@]12C=CC(=O)C=C1CC[C@H]1[C@@H]3C[C@H]4OC(c5ccc(CNC6COC(=O)C6)cc5)O[C@@]4(C(=O)CO)[C@@]3(C)C[C@H](O)[C@@]12F (stereo partly drawn) [Compound 21, (6aS,6bR,7S,8aS,8bS,11aR,12aS,12bS)-6b-Fluoro-7-hydroxy-8b-(2-hydroxyacetyl)-6a,8a-dimethyl-10-(4-(((5-oxotetrahydrofuran-3-yl)amino)methyl)phenyl)-1,2,6a,6b,7,8,8a,8b,11a,12,12a,12b-dodecahydro-4H-naphtho[2',1':4,5]indeno[1,2-d][1,3]dioxol-4-one]	–	target selectivity comparable to that of compound 23	exhibited the characteristic of plasma instability	significantly improved ocular abnormalities	significantly inhibited inflammatory cytokines in the skin of psoriasis model mice	–	–	–	–	0.63 nM	–	–	–
C[C@]12C=CC(=O)C=C1CC[C@H]1[C@@H]3C[C@H]4OC(c5ccc(CSC6COC(=O)C6)cc5)O[C@@]4(C(=O)CO)[C@@]3(C)C[C@H](O)[C@@]12Cl (stereo partly drawn) [Compound 26, (6aS,6bR,7S,8aS,8bS,11aR,12aS,12bS)-6b-Chloro-7-hydroxy-8b-(2-hydroxyacetyl)-6a,8a-dimethyl-10-(4-(((5-oxotetrahydrofuran-3-yl)thio)methyl)phenyl)-1,2,6a,6b,7,8,8a,8b,11a,12,12a,12b-do decahydro-4H-naphtho[2',1':4,5]indeno[1,2-d][1,3]dioxol-4-one]	–	target selectivity comparable to that of compound 23	exhibited the characteristic of plasma instability	significantly improved the ocular abnormalities and reduced the ocular pathological score	significantly inhibited inflammatory cytokines in the skin of psoriasis model mice	–	–	–	–	0.37 nM	7.6 ± 0.5	–	–
C[C@]12C=CC(=O)C=C1CC[C@H]1[C@@H]3C[C@H]4OC(c5ccc(CSC6CCOC6=O)nc5)O[C@@]4(C(=O)CO)[C@@]3(C)C[C@H](O)[C@@]12F (stereo partly drawn) [Compound 47, (6aS,6bR,7S,8aS,8bS,11aR,12aS,12bS)-6b-Fluoro-7-hydroxy-8b-(2-hydroxyacetyl)-6a,8a-dimethyl-10-(6-(((2-oxotetrahydrofuran-3-yl)thio)methyl)pyridin-3-yl)-1,2,6a,6b,7,8,8a,8b,11a,12,12a,12 b-dodecahydro-4H-naphtho[2',1':4,5]indeno[1,2-d][1,3]dioxol-4-one]	–	–	exhibited the characteristic of plasma instability	significantly improved ocular abnormalities	significantly inhibited inflammatory cytokines in the skin of psoriasis model mice	–	–	> 1.5×10^5	–	0.34 nM	–	0.34 nM	> 50000 nM
